The text below walks through data of patent US20230147962A1, “FIBROBLAST ACTIVATION PROTEIN LIGANDS FOR TARGETED DELIVERY APPLICATIONS” (PHILOCHEM AG, priority 2020, published 2023).

Assay [1] concerns the target T1, hFAP (Homo sapiens, UniProt Q12884).
T1 construct: made in house; host or cells: CHO cells, transient gene expression, purified from supernatant
T1 sequence (Q12884 with tags, fused parts or gaps): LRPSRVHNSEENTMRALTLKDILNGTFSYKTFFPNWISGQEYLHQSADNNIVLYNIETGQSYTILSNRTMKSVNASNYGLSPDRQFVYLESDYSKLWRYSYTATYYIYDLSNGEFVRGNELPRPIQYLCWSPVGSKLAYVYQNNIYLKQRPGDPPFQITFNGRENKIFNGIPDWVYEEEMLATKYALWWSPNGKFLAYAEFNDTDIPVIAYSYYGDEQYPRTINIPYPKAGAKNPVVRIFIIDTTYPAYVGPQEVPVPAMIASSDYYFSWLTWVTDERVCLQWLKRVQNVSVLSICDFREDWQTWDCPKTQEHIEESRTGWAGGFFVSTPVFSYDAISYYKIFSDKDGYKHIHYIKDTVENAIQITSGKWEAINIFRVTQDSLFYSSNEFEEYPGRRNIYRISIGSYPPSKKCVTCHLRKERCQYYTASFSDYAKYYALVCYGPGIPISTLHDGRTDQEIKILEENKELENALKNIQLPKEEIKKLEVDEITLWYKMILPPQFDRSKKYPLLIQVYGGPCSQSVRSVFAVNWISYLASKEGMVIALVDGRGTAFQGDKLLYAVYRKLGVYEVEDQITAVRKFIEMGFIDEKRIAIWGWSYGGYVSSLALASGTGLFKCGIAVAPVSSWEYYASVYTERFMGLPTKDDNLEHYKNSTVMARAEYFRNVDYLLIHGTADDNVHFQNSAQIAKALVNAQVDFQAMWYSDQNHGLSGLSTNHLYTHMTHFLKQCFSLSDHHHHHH
As to the kind of experiment: In vitro human FAP enzyme IC50 assay (Z-Gly-Pro-AMC substrate). Type of assay: biochemical. The settings on record: for IC50: 20 nM human FAP, 20 μM substrate, read-out: IC50 hFAP inhibition; for hFAP inhibition (in words): FIG. 17, serial dilution from 10^−6 to 10^−11 M. Here is the method:
Enzymatic activity of human FAP on the Z-Gly-Pro-AMC substrate was measured at room temperature on a microtiter plate reader, monitoring the fluorescence at an excitation wavelength of 360 nm and an emission wavelength of 465 nm. The reaction mixture contained 20 μM substrate, 20 nM human FAP, assay buffer (50 mM Tris, 100 mM NaCl, 1 mM EDTA, pH=7.4) and inhibitor (ranging between 10^−6 and 10^−11 M) in a total volume of 30 μL.
Inhibitor stock solutions (200 mM) were prepared in DMSO. Immediately prior to the commencement of the experiment, the stocks were further diluted to 10^−6 M in the assay buffer, from which 1:2 serial dilutions were prepared. All measurements were done in triplicate.
The reaction mixture contained 20 μM substrate, 20 nM human FAP (constant), assay buffer (50 mM Tris, 100 mM NaCl, 1 mM EDTA, pH=7.4) and inhibitor (serial dilution from 10^−6 to 10^−11 M, 1:2) in a total volume of 20 μL.
Enzymatic activity of human FAP on the Z-Gly-Pro-AMC substrate was measured at room temperature on a microtiter plate reader, monitoring the fluorescence at an excitation wavelength of 360 nm and an emission wavelength of 465 nm. The reaction mixture contained 20 μM substrate, 20 nM human FAP (constant), assay buffer (50 mM Tris, 100 mM NaCl, 1 mM EDTA, pH=7.4) and tested compound (serial dilution from 10^−6 to 10^−11 M, 1:2) in a total volume of 20 μL.

In assay [2] the target is T1, hFAP. Put plainly: Chromatographic co-elution (PD-10) of ligand-protein complexes, hFAP. The settings on record: PD-10 column, hFAP 2 μM. Format: binding. Here is the method: A PD-10 column was pre-equilibrated with assay buffer (50 mM Tris, 100 mM NaCl, 1 mM EDTA, pH=7.4) prior to the loading of the complex. Human FAP (2 μM) and fluorescein-labeled binders (6 μM) were incubated for 30 min at 37° C. in the dark. The mixture was loaded and the column was flushed using the assay buffer. The flow through was collected in 96-well plates and the fluorescence was measured immediately on a TECAN microtiter plate reader, monitoring the fluorescence at an excitation wavelength of 485 nm and an emission wavelength of 535 nm. The protein quantities were estimated by measuring the absorbance at 280 nm using a Nanodrop 2000/2000c spectrophotometer.
A PD-10 column was pre-equilibrated with assay buffer (50 mM Tris, 100 mM NaCl, 1 mM EDTA, pH=7.4) prior to the loading of the complex. A mixture of different proteins (hFAP=2 μM, mFAP=5 μM) and conjugate 15 (100 nM) were incubated and loaded on the column. The mixture was flushed using the assay buffer. The flow through was collected in 96-well plates and the fluorescence intensity was measured immediately on a TECAN microtiter plate reader, monitoring the fluorescence at an excitation wavelength of 485 nm and an emission wavelength of 535 nm. The concentration of the proteins was estimated by measuring the absorbance at 280 nm using a Nanodrop 2000/2000c spectrophotometer.

In assay [3] the target is T1, hFAP. As to the kind of experiment: Dissociation rate measurement by fluorescence polarization. Type of assay: binding. As to conditions: 2.0 nM binder, 1.0 μM human FAP, 37° C., 20 μM fluorescein-free competitor. Here is the method:
Fluorescence polarization measurements to determine the koff values were performed in 384-well plates (non-binding, ps, f-bottom, black, high volume, 30 μL final volume). The measurements were carried out after pre-incubation of 2.0 nM fluorescein-labelled binders with human FAP at a constant concentration of 1.0 μM at 37° C. in the dark. The dissociation of the fluorescein-labeled compound was induced by adding a large excess of the corresponding fluorescein-free binders (compound P3 obtained in Step 3 of Example 2 and compound H6 obtained in Step 6 of Comparative Example 1, respectively, each at 20 μM final concentration).

In assay [4] the target is T1, hFAP. As to the kind of experiment: Affinity measurement to human FAP by fluorescence polarization. Format: binding. The settings on record: binder 10 nM, read-out: KD to hFAP. Here is the method:
Fluorescence polarization measurements were performed in 384-well plates (non-binding, ps, f-bottom, black, high volume, 30 μL final volume). A stock solution of human FAP (4 μM) was serially diluted with buffer (50 mM Tris, 100 mM NaCl, 1 mM EDTA, pH=7.4), while the final concentration of the binders was kept constant at 10 nM. The measurements were carried out after incubating for 30 min at 37° C. in the dark by fluorescent polarization (FIG. 4).
(§1) Fluorescence polarization experiments were performed in 384-well plates (non-binding, ps, f-bottom, black, high volume, 30 μL final volume). Stock solutions of human FAP (4 μM) and murine FAP (5 μM) were serially diluted with buffer (50 mM Tris, 100 mM NaCl, 1 mM EDTA, pH=7.4), while the final concentration of the binders was kept constant at 10 nM. The fluorescence anisotropy was measured on a TECAN microtiter plate reader. Experiments were performed in triplicate and the mean anisotropy values fitted using Prism 7.
In general terms: In fluorescence polarisation assays a small probe gives low polarisation when free and higher when bound to something large.

In assay [5] the target is T2, murine FAP (Mus musculus, UniProt P97321).
T2 sequence (P97321 1-761): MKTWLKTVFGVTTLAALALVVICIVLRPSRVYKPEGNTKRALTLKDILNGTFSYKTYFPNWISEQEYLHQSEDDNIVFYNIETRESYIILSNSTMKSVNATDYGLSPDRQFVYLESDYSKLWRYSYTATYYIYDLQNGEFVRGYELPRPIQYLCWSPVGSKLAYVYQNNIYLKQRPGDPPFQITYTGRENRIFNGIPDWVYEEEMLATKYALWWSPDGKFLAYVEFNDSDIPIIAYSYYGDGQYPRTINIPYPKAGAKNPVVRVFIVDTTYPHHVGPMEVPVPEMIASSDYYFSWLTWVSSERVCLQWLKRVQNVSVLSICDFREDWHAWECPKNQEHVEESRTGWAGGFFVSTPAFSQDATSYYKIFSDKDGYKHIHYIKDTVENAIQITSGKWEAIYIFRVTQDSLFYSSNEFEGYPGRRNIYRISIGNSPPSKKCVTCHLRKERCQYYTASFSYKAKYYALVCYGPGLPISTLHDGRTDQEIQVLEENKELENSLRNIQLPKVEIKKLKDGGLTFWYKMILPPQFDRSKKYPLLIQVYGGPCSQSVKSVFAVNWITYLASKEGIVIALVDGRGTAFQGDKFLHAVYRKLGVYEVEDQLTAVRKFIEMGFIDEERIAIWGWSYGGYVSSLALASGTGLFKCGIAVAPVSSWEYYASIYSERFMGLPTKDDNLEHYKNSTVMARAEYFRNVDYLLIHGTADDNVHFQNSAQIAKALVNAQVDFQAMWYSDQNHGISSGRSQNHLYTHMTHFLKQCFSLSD
As to the kind of experiment: Affinity measurement to murine FAP by fluorescence polarization. Format: binding. As to conditions: binder 10 nM, read-out: KD to mFAP. Here is the method:
as §1

The mark [6] stands for this setting: FIG. 5, 30 min preincubation at 37° C.

Read-outs that look alike come from different tables or passages of the source. *1 amine or outer side, *2 acyl side, *3 side chain or, on linkers, in order; H or OH if unused. Where a SMILES comes first, the peptide text is derived from it. The star is where a group is joined. Fluorescein(5-Mal) = O=C1OC2(c3ccc(O)cc3Oc3cc(O)ccc32)c2ccc(N3C(=O)CC(*)C3=O)cc21; X2 = N#C[C@@H]1CC(F)(F)CN1C(=O)CNC(=O)c1ccnc2ccc(OCCCN3CCN(*)CC3)cc12; Suc = O=C(CCC(=O)[*:2])[*:1]

In general, IC50 refers to the concentration that gives 50% inhibition. Regarding `N#C[C@@H]1CC(F)(F)CN1C(=O)CNC(=O)c1ccnc2ccc(OCCCN3CCNCC3)cc12` [Conjugate H6, (S)—N-(2-(2-cyano-4,4-difluoropyrrolidin-1-yl)-2-oxoethyl)-6-(3-(piperazin-1-yl)propoxy)quinoline-4-carboxamide], the IC50 in assay [1] (setting [6]) turned out to be 24.6 nM.

The term Kd denotes the concentration at which binding is half-saturated. Turning to `N#C[C@@H]1CC(F)(F)CN1C(=O)CNC(=O)c1ccnc2c(NC(=O)CCC(=O)NCCOCCOCCNC(=S)Nc3ccc4c(c3)C(=O)OC43c4ccc(O)cc4Oc4cc(O)ccc43)cccc12` [ESV6-fluo, (S)—N1-(4-((2-(2-cyano-4,4-difluoropyrrolidin-1-yl)-2-oxoethyl)carbamoyl)quinolin-8-yl)-N4-(2-(2-(2-(3-(3′,6′-dihydroxy-3-oxo-3H-spiro[isobenzofuran-1,9′-xanthen]-5-yl)thioureido)ethoxy)ethoxy)ethyl)succinamide], in assay [2], the “complex formation with hFAP in PD-10 co-elution” value is listed as “stable complex is formed”. Moreover, in assay [3], the “dissociation from hFAP, regression coefficient” value is recorded as −0.09356. The Kd in assay [4] is 0.78 nM.

`C[C@H](NC(=O)c1ccnc(CNC(=O)CCC(=O)O)c1)C(=O)N1CC(F)(F)C[C@H]1C#N` [Conjugate 29, 4-(((4-(((S)-1-((S)-2-cyano-4,4-difluoropyrrolidin-1-yl)-1-oxopropan-2-yl)carbamoyl)pyridin-2-yl)methyl)amino)-4-oxobutanoic acid]: the “hFAP inhibition (in words)” value in assay [1] was “does not inhibit FAP proteolytic activity at the concentrations tested in the assay”.

With `N#C[C@@H]1CC(F)(F)CN1C(=O)CNC(=O)c1ccnc2ccc(OCCCN3CCN(C(=O)CCC(=O)N[C@@H](CC(=O)O)C(=O)N[C@@H](CCCCN)C(=O)N[C@@H](CC(=O)O)C(=O)N[C@@H](CSC4CC(=O)N(c5ccc6c(c5)C(=O)OC65c6ccc(O)cc6Oc6cc(O)ccc65)C4=O)C(=O)O)CC3)cc12` (stereo partly shown) [conjugate 25, reference compound] ({X2-Suc}-DKDC(Fluorescein(5-Mal))-OH), the figures for the Kd in assay [4] and in assay [5] were 1.02 nM and 30.9 nM, respectively.

For `N#C[C@@H]1CC(F)(F)CN1C(=O)CNC(=O)c1ccnc2cc(Nc3ccccc3)ccc12` [compound 24, (S)-N-(2-(2-cyano-4,4-difluoropyrrolidin-1-yl)-2-oxoethyl)-7-(phenylamino)quinoline-4-carboxamide], the half-inhibitory concentration (IC50) in assay [1] (FIG. 9, total volume 20 μL) came to 33.5 nM. In the case of `N#C[C@@H]1CC(F)(F)CN1C(=O)CNC(=O)c1ccnc2ccc(OCCCN3CCNCC3)cc12` [Haberkorn ligand], the IC50 in assay [1] (setting [6]) amounted to 24.6 nM.

As to `N#C[C@@H]1CC(F)(F)CN1C(=O)CNC(=O)c1ccnc2c(NC(=O)CCC(=O)O)cccc12` [Conjugate P4, (S)-4-((4-((2-(2-cyano-4,4-difluoropyrrolidin-1-yl)-2-oxoethyl)carbamoyl)quinolin-8-yl)amino)-4-oxobutanoic acid], in assay [1] (FIG. 9, total volume 20 μL), the half-inhibitory concentration (IC50) turned out to be 16.8 nM. In the case of `N#C[C@@H]1CC(F)(F)CN1C(=O)CNC(=O)c1ccnc2ccc(OCCCN3CCN(C(=O)c4ccc5c(c4)C(=O)OC54c5ccc(O)cc5Oc5cc(O)ccc54)CC3)cc12` [Haberkorn-fluo, (S)—N-(2-(2-cyano-4,4-difluoropyrrolidin-1-yl)-2-oxoethyl)-6-(3-(4-(3′,6′-dihydroxy-3-oxo-3H-spiro[isobenzofuran-1,9′-xanthene]-5-carbonyl)piperazin-1-yl)propoxy)quinoline-4-carboxamide, reference compound], in assay [2], the “complex formation with hFAP in PD-10 co-elution” value is on record as “stable complex is formed”. Also, the “dissociation from hFAP, regression coefficient” value in assay [3] was −0.07511. Besides, in assay [4], the dissociation constant (Kd) amounted to 0.89 nM. Regarding `COc1ccc2nccc(C(=O)NCC(=O)N3CCC[C@H]3C#N)c2c1` [Conjugate 28, (S)-N-(2-(2-cyanopyrrolidin-1-yl)-2-oxoethyl)-6-methoxyquinoline-4-carboxamide], the “hFAP inhibition (in words)” value in assay [1] is recorded as “lower FAP inhibition property compared with Example 2, P4”. As for `N#C[C@@H]1CC(F)(F)CN1C(=O)CNC(=O)c1ccnc2c(N)cccc12` [Conjugate P3, (S)-8-amino-N-(2-(2-cyano-4,4-difluoropyrrolidin-1-yl)-2-oxoethyl)quinoline-4-carboxamide], the IC50 in assay [1] (setting [6]) came out at 20.2 nM. Take `N#C[C@@H]1CC(F)(F)CN1C(=O)CNC(=O)c1ccnc2c(N)cccc12` [ESV6 ligand]: the IC50 in assay [1] (setting [6]) came out at 20.2 nM.
